Source: PMC3032760, “Two-dose-level confirmatory study of the pharmacokinetics and tolerability of everolimus in Chinese patients with advanced solid tumors” (Journal of Hematology & Oncology, 2011)
Several values for one entry are separate records, joined by “and”; a condition that tells them apart may be missing. Equal entries are not always repeated. Where two headings read alike, the source gives them in different places.

Key:
Format in all cases: in vivo, human
[1] = Everolimus blood pharmacokinetics (24-h profile day 15, trough levels) in Chinese patients with advanced solid tumors; settings: for Tmax / Cmax / AUC: human, whole blood; for Tmax: po, read-out: Tmax, median (range); for Cmax / AUC: n = 12, day 15, blood; for Cmax / AUC / Cmin (pre-dose trough concentration): mean (% coefficient of variation); for AUC: read-out: AUC0-τ; for CL/F, mean (± standard deviation): after reaching steady state; for Cmin (pre-dose trough concentration): n = 12, blood; for Time to steady-state levels: continuous daily dosing
Protocol: Blood samples for everolimus 24-h PK profile were collected on day 15 pre-dose and at 1, 2, 4, 6, 8, and 24 h post-dose; blood samples for everolimus trough concentration were collected pre-dose on days 2, 8, 16, and 22. Everolimus concentration was determined after liquid extraction by a liquid chromatography-mass spectroscopy method with lower limits of quantification for everolimus of 0.3 ng/mL. PK parameters of everolimus determined for each cohort included the maximum blood concentration (Cmax), minimum blood concentration (Cmin), time to maximum concentration (Tmax), area under the dosing curve (AUC0-τ), and total body apparent clearance of drug from the blood (CL/F). PK analyses were performed on all patients in the safety population with a sufficient number of evaluable blood samples.

[2] = Patient disposition at final analysis; settings: n = 12
Protocol: Patients continued treatment until tumor progression, unacceptable toxicity, death, or discontinued if the investigator or patient felt it was in the patient's best interest to discontinue participation. Dose modifications were allowed in the event of adverse events grade ≥2. Specific nomograms were followed to manage patients who developed known toxicities of everolimus, such as non-infectious pneumonitis.
This final analysis was performed after all patients had received 6 months of study drug or had discontinued from the study.

advanced solid tumors = assay: Tumor response and progression by RECIST; settings: for Best overall tumor response stable disease, patients: n = 12; for Patients with stable disease: both cohorts, 6 patients per tumor type
Protocol: Tumor response and progression was assessed locally for all randomized patients using RECIST criteria. A computed tomography scan or magnetic resonance image of the chest, abdomen, and pelvis was performed at screening and every 2 months (±7 days) thereafter. Confirmatory imaging results ≥4 weeks after an initial observation were required for a positive assessment of complete or partial response.

[3] = Safety and tolerability: adverse events graded by NCI CTCAE v3.0; settings: for Deaths during the study: considered unrelated to everolimus
Description: Safety assessments included incidence, severity, and treatment relationship of adverse and serious adverse events and the regular monitoring of hematology, serum and urine chemistry, vital signs, and physical condition. Adverse events were graded according to the National Cancer Institute's Common Terminology Criteria for Adverse Events, version 3.0 [22]. The safety population consisted of all patients who received ≥1 dose of study drug and had ≥1 post-baseline safety assessment.

[4] = 5 mg/day, n = 12, suspected relationship to everolimus
[5] = 10 mg/day, n = 12, suspected relationship to everolimus

## CO[C@H]1C[C@@H]2CC[C@@H](C)[C@@](O)(O2)C(=O)C(=O)N2CCCC[C@H]2C(=O)O[C@H]([C@H](C)C[C@@H]2CC[C@@H](OCCO)[C@H](OC)C2)CC(=O)[C@H](C)/C=C(\C)[C@@H](O)[C@@H](OC)C(=O)[C@H](C)C[C@H](C)/C=C/C=C/C=C/1C [Everolimus, everolimus]
[1]; 10 mg/day versus 5 mg/day
  Cmin, Cmax and AUC0-τ with 10 mg/day relative to 5 mg/day: approximately 2 fold
[1]; 5 mg/day, oral 5 mg/day, n = 12
  Tmax: 3 h
[1]; 10 mg/day, oral 10 mg/day, n = 12
  Tmax: 2 h
[1]; oral 5 mg/day
  Cmax: 28.8 ng/mL
  AUC: 316 ng·h/mL
  CL/F, mean (± standard deviation): 16.7 (±5.6) L/h
  Cmin (pre-dose trough concentration): 8.3 (46.8) ng/mL
[1]; oral 10 mg/day
  Cmax: 53.8 ng/mL
  AUC: 589 ng·h/mL
  CL/F, mean (± standard deviation): 18.2 (±7.2) L/h
  Cmin (pre-dose trough concentration): 14.5 (47.9) ng/mL
[1]; oral 5 mg/day, n = 12
  Tmax, median (range): 2.96 (1.00-4.00) h
[1]; oral 5 and 10 mg/day
  Time at which maximum blood concentrations were generally reached: 2 to 4 h
  Time to steady-state levels: ≤ 8 days
[1]; oral 5 and 10 mg/day, listed as everolimus
  Time to steady-state levels: 8 days
[2]; 5 mg/day
  Discontinued: Death: 0 n (%)
  Discontinued: Disease progression: 9 (75.0) n (%)
[2]; 10 mg/day
  Discontinued: Death: 2 (16.7) n (%)
  Discontinued: Disease progression: 7 (58.3) n (%)
Advanced solid tumors; 5 mg/day cohort
  Progressive disease as best overall response, patients: 16.7%
  Best overall tumor response stable disease, patients: 83% and 83.3%
Advanced solid tumors; 5 mg/day cohort, 95% CI 2.89-8.05
  Median duration of stable disease: 5.03 months
Advanced solid tumors; 10 mg/day cohort
  Progressive disease as best overall response, patients: 41.7%
  Best overall tumor response stable disease, patients: 50%
Advanced solid tumors; 10 mg/day cohort, 95% CI 3.58-not reached
  Median duration of stable disease: 6.08 months
Advanced solid tumors; 4 patients with RCC, at data cutoff, 95% CI 6.08-11.1+
  Median duration of stable disease: not yet been reached
Advanced solid tumors; 5 and 10 mg/day cohorts, RECIST
  Complete or partial responses: No complete or partial responses
Advanced solid tumors; NSCLC
  Patients with stable disease: 4 patients
Advanced solid tumors; RCC
  Patients with stable disease: 4 patients
Advanced solid tumors; breast cancer
  Patients with stable disease: 3 patients
Advanced solid tumors; gastric cancer
  Patients with stable disease: 5 patients
[3]; 5 mg/day cohort
  Fatigue suspected to be related to everolimus, patients: 16.7%
  Hyperglycemia (increased blood glucose) suspected to be related to everolimus, patients: 16.7%
  Patients with grade 3 adverse events suspected to be related to everolimus: 25%
  Deaths during the study: 1
[3]; 5 mg/day, n = 12
  Adverse events with suspected relationship to everolimus: Total, All grades: 12 (100) n (%)
  Adverse events with suspected relationship to everolimus: Total, Grade 3: 3 (25.0) n (%)
  Adverse events with suspected relationship to everolimus: Total, Grade 4: 0 n (%)
[3]; [4]
  Anemia, All grades: 1 (8.3) n (%)
  Anemia, Grade 3: 1 (8.3) n (%)
  Anemia, Grade 4: 0 n (%)
  Blood alkaline phosphatase increased, All grades: 1 (8.3) n (%)
  Blood alkaline phosphatase increased, Grade 3: 0 n (%)
  Blood alkaline phosphatase increased, Grade 4: 0 n (%)
  Fatigue, All grades: 2 (16.7) n (%)
  Fatigue, Grade 3: 0 n (%)
  Fatigue, Grade 4: 0 n (%)
  Hyperglycemia, All grades: 2 (16.7) n (%)
  Hyperglycemia, Grade 3: 0 n (%)
  Hyperglycemia, Grade 4: 0 n (%)
  Hypokalemia, All grades: 3 (25.0) n (%)
  Hypokalemia, Grade 3: 1 (8.3) n (%)
  Hypokalemia, Grade 4: 0 n (%)
  Thrombocytopenia, All grades: 2 (16.7) n (%)
  Thrombocytopenia, Grade 3: 1 (8.3) n (%)
  Thrombocytopenia, Grade 4: 0 n (%)
  Upper respiratory tract infection, All grades: 1 (8.3) n (%)
  Upper respiratory tract infection, Grade 3: 1 (8.3) n (%)
[3]; 10 mg/day cohort
  Fatigue suspected to be related to everolimus, patients: 33.3%
  Hyperglycemia (increased blood glucose) suspected to be related to everolimus, patients: 41.7%
  Patients with grade 3 adverse events suspected to be related to everolimus: 25%
  Deaths during the study: 2
[3]; 10 mg/day, n = 12
  Adverse events with suspected relationship to everolimus: Total, All grades: 12 (100) n (%)
  Adverse events with suspected relationship to everolimus: Total, Grade 3: 3 (25.0) n (%)
  Adverse events with suspected relationship to everolimus: Total, Grade 4: 0 n (%)
[3]; [5]
  Anemia, All grades: 3 (25.0) n (%)
  Anemia, Grade 3: 0 n (%)
  Anemia, Grade 4: 0 n (%)
  Blood alkaline phosphatase increased, All grades: 3 (25.0) n (%)
  Blood alkaline phosphatase increased, Grade 3: 1 (8.3) n (%)
  Blood alkaline phosphatase increased, Grade 4: 0 n (%)
  Fatigue, All grades: 4 (33.3) n (%)
  Fatigue, Grade 3: 1 (8.3) n (%)
  Fatigue, Grade 4: 0 n (%)
  Hyperglycemia, All grades: 5 (41.7) n (%)
  Hyperglycemia, Grade 3: 1 (8.3) n (%)
  Hyperglycemia, Grade 4: 0 n (%)
  Hypokalemia, All grades: 2 (16.7) n (%)
  Hypokalemia, Grade 3: 0 n (%)
  Hypokalemia, Grade 4: 0 n (%)
  Thrombocytopenia, All grades: 3 (25.0) n (%)
  Thrombocytopenia, Grade 3: 0 n (%)
  Thrombocytopenia, Grade 4: 0 n (%)
  Upper respiratory tract infection, All grades: 0 n (%)
  Upper respiratory tract infection, Grade 3: 0 n (%)
  Upper respiratory tract infection, Grade 4: 0 n (%)
[3]; 5 and 10 mg/day cohorts
  Noninfectious pneumonitis: not observed
[3]; 5 or 10 mg/day, Chinese patients with advanced solid tumors
  Tolerability: well tolerated
[3]; both cohorts, 24 patients in total
  Patients reporting ≥1 adverse event: 24 patients
[3]; whole study, reversible with remedial treatment and interruption of everolimus
  Grade 3 upper respiratory tract infection, patients: 1 patient
